According to patent publication US7892777B2, “Methods for measuring whether a treatment affects RPTP-κ activity” (The Regents Of The University Of Michigan, priority 2007, dated 2011):

Columns and labels:
EGFR = EGFR tyrosine phosphorylation (EGFR activation) in primary human keratinocytes; type: cell-based; details: human primary keratinocytes treated before UV irradiation (extracts: 16 hours, 50 mJ/cm2, 30 minutes post irradiation)
Experimental: With reference to FIG. 3, UV-induced EGFR tyrosine phosphorylation is shown to be ligand-independent and mediated by oxidative inhibition of RPTP-κ in primary human keratinocytes. Shown in panel A, primary human keratinocytes were treated with control IgG1 or EGFR antibody LA1 (1 μg/mL), which blocks ligand binding, as indicated. Cells were then treated with vehicle (CTRL), or EGF (10 ng/mL) for 10 min, or UV irradiated (50 mJ/cm^2) and harvested 15 min post irradiation. Whole cell lysates were subjected to Western analysis for total EGFR and tyrosine-phosphorylated EGFR. Levels of immunoreactive EGFR were quantified by chemifluorescent detection. Results are mean±S.E. of three independent experiments; *, p<0.05. […] Shown in panel B, human keratinocytes were UV-irradiated (50 mJ/cm^2), and whole cell lysates were prepared at the indicated times. RPTP-κ and β-actin (internal control) were detected by Western blot, and quantified by chemifluorescent detection. Results are mean±S.E. of three independent experiments; *, p<0.05. […] Shown in panel C, primary human keratinocytes were mock (No UV) or UV irradiated (50 mJ/cm^2), and whole cell lysates were prepared 5 min post-UV irradiation. RPTP-κ was immunoprecipitated, and phosphatase activity was determined using a tyrosine-phosphorylated EGFR peptide as substrate. Phosphatase activity was normalized to RPTP-κ protein content in the immunoprecipitates, which was quantified by Western analysis using chemifluorescent detection. Results are mean±S.E. of three independent experiments; *, p<0.05. […] Endogenous RPTP-κ was immunoprecipitated, and assayed for activity in buffer containing dithiothreitol to reduce oxidized RPTP-κ to restore enzymatic activity, using a tyrosine-phosphorylated EGFR peptide as substrate. Results are mean±S.E. of three independent experiments; *, p<0.05. Shown in panel E, RPTP-κ was immunoprecipitated from mock or UV-irradiated human keratinocytes, and the immunoprecipitates were treated with DTT to reduce oxidized RPTP-κ, as described above for panel C. Reduced RPTP-κ was irreversibly oxidized by pervanadate, and oxidized (OX-PTP) and total RPTP-κ were detected by Western blot, using specific antibodies. Results are mean±S.E. of three independent experiments; *, p<0.05.
With reference to FIG. 4, knockdown of RPTP-κ is shown to increase EGFR tyrosine phosphorylation in primary human keratinocytes. Shown in panel A, human keratinocytes were transfected with scrambled control (CTRL) or RPTP-κ siRNA. Two days post-transfection, whole cell lysates were prepared and analyzed for RPTP-κ and β-actin (internal control) proteins by Western blot. Results are mean±S.E. of three independent experiments; *, p<0.05. […] Shown in panel B, two days after transfection with control (CTRL) or RPTP-κ siRNA, keratinocytes were UV irradiated (50 mJ/cm2). Whole cell lysates were prepared 15 min post-UV irradiation and analyzed for total EGFR and tyrosine-phosphorylated EGFR Western blot. Results are mean±S.E. of three independent experiments; *, p<0.05. […] Shown in panel C, keratinocytes were transfected with control (CTRL) or RPTP-κ siRNA and treated with control IgG or neutralizing anti-EGFR antibody. Two days post-transfection, whole cell lysates were prepared and total and tyrosine-phosphorylated EGFR were quantified by ELISA. Results are mean±S.E. of three independent experiments; *, p<0.05.
With reference to FIG. 7, primary adult human keratinocytes were treated with Laminaria japonica extract (LJE) or Porphyra haitanensis extract (PHE) for 16 hours prior to exposure to ultraviolet (UV) irradiation (50 mJ/cm2). Cells were analyzed for phosphorylated epidermal growth factor receptor (EGFR) and total EGFR by Western analyses 30 minutes post irradiation. […]

[1] = target: RPTP-κ glutathione S-transferase fusion protein (Homo sapiens, UniProt Q15262); details: 100 μM H2O2, room temperature 30 min; FIG. 1A
Chain of RPTP-κ glutathione S-transferase fusion protein (Q15262 775-1439 limits assumed): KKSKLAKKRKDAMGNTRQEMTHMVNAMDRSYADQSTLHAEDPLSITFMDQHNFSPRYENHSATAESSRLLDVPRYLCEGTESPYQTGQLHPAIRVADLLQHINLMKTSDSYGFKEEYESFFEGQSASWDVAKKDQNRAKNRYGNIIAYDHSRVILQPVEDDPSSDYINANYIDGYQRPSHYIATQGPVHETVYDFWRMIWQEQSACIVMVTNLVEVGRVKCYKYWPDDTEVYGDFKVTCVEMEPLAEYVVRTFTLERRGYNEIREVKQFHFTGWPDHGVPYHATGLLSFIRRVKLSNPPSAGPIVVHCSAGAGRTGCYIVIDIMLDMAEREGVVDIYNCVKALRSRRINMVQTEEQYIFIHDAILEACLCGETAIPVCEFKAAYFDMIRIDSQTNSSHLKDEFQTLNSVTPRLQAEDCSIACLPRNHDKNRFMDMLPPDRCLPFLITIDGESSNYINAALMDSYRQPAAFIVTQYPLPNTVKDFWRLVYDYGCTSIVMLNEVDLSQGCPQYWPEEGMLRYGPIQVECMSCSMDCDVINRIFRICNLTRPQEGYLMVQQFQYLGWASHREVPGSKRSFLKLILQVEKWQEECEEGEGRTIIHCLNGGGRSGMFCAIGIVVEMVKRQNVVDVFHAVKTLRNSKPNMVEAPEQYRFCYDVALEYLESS

purified EGFR = purified EGFR (Homo sapiens, UniProt P00533); details: EGFR with EGF and ATP/Mg2+, H2O2 at room temperature 30 min; FIG. 1B
Chain of purified EGFR (P00533 25-1210): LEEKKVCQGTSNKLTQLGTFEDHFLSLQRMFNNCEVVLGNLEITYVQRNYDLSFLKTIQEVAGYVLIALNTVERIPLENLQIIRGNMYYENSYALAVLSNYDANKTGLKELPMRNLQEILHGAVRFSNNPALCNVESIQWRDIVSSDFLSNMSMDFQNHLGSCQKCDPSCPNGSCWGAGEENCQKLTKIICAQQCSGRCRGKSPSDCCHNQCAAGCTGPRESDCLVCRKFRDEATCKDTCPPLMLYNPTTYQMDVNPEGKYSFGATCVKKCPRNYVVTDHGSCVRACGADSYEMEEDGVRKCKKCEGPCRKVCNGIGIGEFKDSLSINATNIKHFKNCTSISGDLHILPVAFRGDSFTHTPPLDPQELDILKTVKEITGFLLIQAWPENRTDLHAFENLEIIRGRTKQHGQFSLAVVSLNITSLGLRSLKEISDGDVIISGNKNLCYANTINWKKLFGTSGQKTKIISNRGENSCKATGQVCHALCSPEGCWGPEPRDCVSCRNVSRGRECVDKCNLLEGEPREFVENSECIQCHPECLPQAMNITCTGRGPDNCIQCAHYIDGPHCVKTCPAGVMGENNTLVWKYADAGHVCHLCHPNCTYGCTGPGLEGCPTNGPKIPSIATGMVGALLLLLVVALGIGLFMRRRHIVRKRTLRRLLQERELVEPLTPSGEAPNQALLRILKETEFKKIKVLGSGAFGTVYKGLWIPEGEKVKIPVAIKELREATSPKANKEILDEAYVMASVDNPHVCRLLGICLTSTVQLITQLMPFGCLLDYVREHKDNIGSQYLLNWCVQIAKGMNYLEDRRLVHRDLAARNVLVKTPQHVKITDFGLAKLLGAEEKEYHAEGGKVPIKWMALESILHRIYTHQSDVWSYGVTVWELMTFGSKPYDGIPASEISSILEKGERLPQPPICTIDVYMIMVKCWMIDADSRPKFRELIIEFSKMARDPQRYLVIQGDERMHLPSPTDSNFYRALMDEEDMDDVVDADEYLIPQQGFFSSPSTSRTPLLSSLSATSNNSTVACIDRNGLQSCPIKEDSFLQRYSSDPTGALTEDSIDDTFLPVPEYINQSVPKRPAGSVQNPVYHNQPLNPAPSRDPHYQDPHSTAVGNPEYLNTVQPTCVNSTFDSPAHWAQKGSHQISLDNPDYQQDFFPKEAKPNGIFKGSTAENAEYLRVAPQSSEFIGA

RPTP-κ and EGFR = RPTP-κ and EGFR (Homo sapiens, UniProt Q15262); details: purified RPTP-κ and EGFR together, H2O2 100 μM, room temperature 30 min; FIG. 1C
Chain of RPTP-κ and EGFR (Q15262 775-1439 limits assumed): as the sequence (Q15262 775-1439 limits assumed) above

| SMILES | UV irradiation-induced EGFR activation (EGFR) | other results |
| --- | --- | --- |
| CC(=O)N[C@@H](CS)C(=O)O [N-Acetyl cysteine] | no effect | – |
| O=C(/C=C/c1ccc(O)c(O)c1)OCCc1ccccc1 [CAPE, Caffeic acid phenethyl ester] | no effect | – |
| CC1=C(C)C(=O)C(CC[C@](C)(O)CCC[C@H](C)CCC[C@H](C)CCCC(C)C)=C(C)C1=O [Tocopherylquinone, d-alpha] | no effect | – |
| OO [H2O2, hydrogen peroxide] | – | loss of RPTP-κ activity [1]: 80%; effect on tyrosine phosphorylation of purified EGFR (purified EGFR): no direct effect; EGFR tyrosine phosphorylation (RPTP-κ and EGFR): increased to the level observed in the absence of RPTP-κ |
| CC1=NN(c2ccccc2)C(=O)C1 [MCI-186, 3-Methyl-1-phenyl-2-pyrazolin-5-one] | no effect | – |
| Oc1ccc(C=Cc2cc(O)cc(O)c2)cc1 [Resveratrol] | no effect | UV irradiation-induced EGFR activation (EGFR; listed as resveratrol): did not exhibit activity |
| COC1=C(OC)C(=O)C(CCCCCCCCCC[P+](c2ccccc2)(c2ccccc2)c2ccccc2)=C(C)C1=O [Mito Q10] | no effect | – |
